Laboratory results as given in ChEMBL document CHEMBL4879554, “Data for DCP probe GNE-2256” (2021).
The source made the active and inactive calls. No cut-off for these calls is given here.

Experiments:
[1] = target: Macrophage colony-stimulating factor 1 receptor (Homo sapiens) (UniProt P07333); experiment: CSF1R Kinase panel; conditions: Compound concentration 1.0 uM
[2] = target: Tyrosine-protein kinase JAK1 (Homo sapiens, UniProt P23458); experiment: NanoBRET assay (JAK1, SGC Frankfurt)
[3] = target: Mitogen-activated protein kinase 11 (Homo sapiens) (UniProt Q15759); experiment: p38_beta Kinase panel; conditions: Compound concentration 1.0 uM
[4] = target: Rho-associated protein kinase 2 (Homo sapiens) (UniProt O75116); experiment: ROCK2 Kinase panel; conditions: Compound concentration 1.0 uM
[5] = target: MAP kinase-activated protein kinase 2 (Homo sapiens) (UniProt P49137); experiment: MAPKAPK2 Kinase panel; conditions: Compound concentration 1.0 uM
[6] = target: Mitogen-activated protein kinase 9 (Homo sapiens) (UniProt P45984); experiment: JNK2 Kinase panel; conditions: Compound concentration 1.0 uM
[7] = target: GABA-A receptor; anion channel (Rattus norvegicus) (UniProt O09028+P15431+P18506+P18508+P19969+P20236+P23574+P23576+P28471+P28473+P30191+P62813+P63079+P63138+Q91ZM7+Q9ES14); conditions: Compound concentration 10.0 uM
[8] = target: Cyclin-dependent kinase 7/ cyclin H (Homo sapiens) (UniProt P51946+P50613); experiment: CDK7/cyclinH Kinase panel; format: protein-complex assay; conditions: Compound concentration 1.0 uM
[9] = target: CDK8/Cyclin C (Homo sapiens) (UniProt P49336+P24863); experiment: CDK8/cyclinC Kinase panel; format: protein-complex assay; conditions: Compound concentration 1.0 uM
[10] = target: MAP kinase-activated protein kinase 3 (Homo sapiens) (UniProt Q16644); experiment: MAPKAPK3 Kinase panel; conditions: Compound concentration 1.0 uM
[11] = target: Epidermal growth factor receptor (Homo sapiens) (UniProt P00533); experiment: EGFR Kinase panel; conditions: Compound concentration 1.0 uM
[12] = target: Histamine H4 receptor (Homo sapiens) (UniProt Q9H3N8); conditions: Compound concentration 10.0 uM
[13] = target: Phosphorylase b kinase gamma catalytic chain, skeletal muscle/heart isoform (Homo sapiens) (UniProt Q16816); experiment: PhK_gamma1 Kinase panel; conditions: Compound concentration 1.0 uM
[14] = target: Mitogen-activated protein kinase kinase kinase kinase 4 (Homo sapiens, UniProt O95819); experiment: MAP4K4 Kinase panel
[15] = target: Mitogen-activated protein kinase kinase kinase kinase 5 (Homo sapiens) (UniProt Q9Y4K4); experiment: KHS1 Kinase panel; conditions: Compound concentration 1.0 uM
[16] = target: Sigma intracellular receptor 2 (Homo sapiens) (UniProt Q5BJF2); conditions: Compound concentration 10.0 uM
[17] = target: Serine/threonine-protein kinase Chk1 (Homo sapiens) (UniProt O14757); experiment: CHK1 Kinase panel; conditions: Compound concentration 1.0 uM
[18] = target: Hepatocyte growth factor receptor (Homo sapiens) (UniProt P08581); experiment: Met Kinase panel; conditions: Compound concentration 1.0 uM
[19] = target: Protein kinase C eta type (Homo sapiens) (UniProt P24723); experiment: PKC_eta Kinase panel; conditions: Compound concentration 1.0 uM
[20] = target: Dual specificity mitogen-activated protein kinase kinase 3 (Homo sapiens) (UniProt P46734); experiment: MEK3 Kinase panel; conditions: Compound concentration 1.0 uM
[21] = target: Alpha-2B adrenergic receptor (Homo sapiens) (UniProt P18089); conditions: Compound concentration 10.0 uM
[22] = target: Insulin-like growth factor 1 receptor (Homo sapiens) (UniProt P08069); experiment: IGF1R Kinase panel; conditions: Compound concentration 1.0 uM
[23] = target: Interleukin-1 receptor-associated kinase 4 (Homo sapiens, UniProt Q9NWZ3); experiment: NanoBRET assay (IRAK4, SGC Frankfurt)
[24] = target: Mitogen-activated protein kinase kinase kinase 10 (Homo sapiens) (UniProt Q02779); experiment: MLK2 Kinase panel; conditions: Compound concentration 1.0 uM
[25] = target: STE20-like serine/threonine-protein kinase (Homo sapiens) (UniProt Q9H2G2); experiment: SLK Kinase panel; conditions: Compound concentration 1.0 uM
[26] = target: Beta-3 adrenergic receptor (Homo sapiens) (UniProt P13945); conditions: Compound concentration 10.0 uM
[27] = target: Casein kinase I isoform alpha (Homo sapiens) (UniProt P48729); experiment: CK1_alpha1 Kinase panel; conditions: Compound concentration 1.0 uM
[28] = target: Protein kinase C zeta type (Homo sapiens) (UniProt Q05513); experiment: PKC_zeta Kinase panel; conditions: Compound concentration 1.0 uM
[29] = target: Serine/threonine-protein kinase Nek9 (Homo sapiens) (UniProt Q8TD19); experiment: NEK9 Kinase panel; conditions: Compound concentration 1.0 uM
Rattus norvegicus = species on record: Rattus norvegicus; conditions: Compound concentration 10.0 uM
[30] = target: Protein-tyrosine kinase 6 (Homo sapiens) (UniProt Q13882); experiment: Brk Kinase panel; conditions: Compound concentration 1.0 uM
[31] = target: Dual specificity protein kinase CLK3 (Homo sapiens) (UniProt P49761); experiment: CLK3 Kinase panel; conditions: Compound concentration 1.0 uM
[32] = target: Casein kinase I isoform gamma-1 (Homo sapiens) (UniProt Q9HCP0); experiment: CK1_gamma1 Kinase panel; conditions: Compound concentration 1.0 uM
[33] = target: Tyrosine-protein kinase receptor UFO (Homo sapiens) (UniProt P30530); experiment: Axl Kinase panel; conditions: Compound concentration 1.0 uM
[34] = target: 5-hydroxytryptamine receptor 2A (Homo sapiens) (UniProt P28223); conditions: Compound concentration 10.0 uM
[35] = target: Ephrin type-A receptor 1 (Homo sapiens) (UniProt P21709); experiment: EphA1 Kinase panel; conditions: Compound concentration 1.0 uM
[36] = target: Dual specificity mitogen-activated protein kinase kinase 6 (Homo sapiens) (UniProt P52564); experiment: MKK6 Kinase panel; conditions: Compound concentration 1.0 uM
[37] = target: Inhibitor of nuclear factor kappa-B kinase subunit epsilon (Homo sapiens) (UniProt Q14164); experiment: IKK_epsilon Kinase panel; conditions: Compound concentration 1.0 uM
[38] = target: Receptor tyrosine-protein kinase erbB-4 (Homo sapiens) (UniProt Q15303); experiment: ErbB4 Kinase panel; conditions: Compound concentration 1.0 uM
[39] = target: Alpha-2A adrenergic receptor (Homo sapiens) (UniProt P08913); conditions: Compound concentration 10.0 uM
[40] = target: Activated CDC42 kinase 1 (Homo sapiens) (UniProt Q07912); experiment: TNK2 Kinase panel; conditions: Compound concentration 1.0 uM
[41] = target: Tyrosine-protein kinase BTK (Homo sapiens) (UniProt Q06187); experiment: BTK Kinase panel; conditions: Compound concentration 1.0 uM
[42] = target: Muscle, skeletal receptor tyrosine-protein kinase (Homo sapiens) (UniProt O15146); experiment: MuSK Kinase panel; conditions: Compound concentration 1.0 uM
[43] = target: Serine/threonine-protein kinase 24 (Homo sapiens) (UniProt Q9Y6E0); experiment: MST3 Kinase panel; conditions: Compound concentration 1.0 uM
[44] = target: Serine/threonine-protein kinase 4 (Homo sapiens) (UniProt Q13043); experiment: MST1 Kinase panel; conditions: Compound concentration 1.0 uM
[45] = target: SRSF protein kinase 1 (Homo sapiens) (UniProt Q96SB4); experiment: SRPK1 Kinase panel; conditions: Compound concentration 1.0 uM
[46] = target: Mitogen-activated protein kinase kinase kinase 2 (Homo sapiens) (UniProt Q9Y2U5); experiment: MEKK2 Kinase panel; conditions: Compound concentration 1.0 uM
[47] = target: Serine/threonine-protein kinase Sgk2 (Homo sapiens) (UniProt Q9HBY8); experiment: SGK2 Kinase panel; conditions: Compound concentration 1.0 uM
[48] = target: Ribosomal protein S6 kinase alpha-1 (Homo sapiens) (UniProt Q15418); experiment: RSK1 Kinase panel; conditions: Compound concentration 1.0 uM
[49] = target: Homeodomain-interacting protein kinase 4 (Homo sapiens) (UniProt Q8NE63); experiment: HIPK4 Kinase panel; conditions: Compound concentration 1.0 uM
[50] = target: Tyrosine-protein kinase ABL1 (Homo sapiens) (UniProt P00519); experiment: Abl Kinase panel; conditions: Compound concentration 1.0 uM
[51] = target: Ribosomal protein S6 kinase beta-1 (Homo sapiens) (UniProt P23443); experiment: p70S6K Kinase panel; conditions: Compound concentration 1.0 uM

Chain of Interleukin-1 receptor-associated kinase 4 (Q9NWZ3 whole entry): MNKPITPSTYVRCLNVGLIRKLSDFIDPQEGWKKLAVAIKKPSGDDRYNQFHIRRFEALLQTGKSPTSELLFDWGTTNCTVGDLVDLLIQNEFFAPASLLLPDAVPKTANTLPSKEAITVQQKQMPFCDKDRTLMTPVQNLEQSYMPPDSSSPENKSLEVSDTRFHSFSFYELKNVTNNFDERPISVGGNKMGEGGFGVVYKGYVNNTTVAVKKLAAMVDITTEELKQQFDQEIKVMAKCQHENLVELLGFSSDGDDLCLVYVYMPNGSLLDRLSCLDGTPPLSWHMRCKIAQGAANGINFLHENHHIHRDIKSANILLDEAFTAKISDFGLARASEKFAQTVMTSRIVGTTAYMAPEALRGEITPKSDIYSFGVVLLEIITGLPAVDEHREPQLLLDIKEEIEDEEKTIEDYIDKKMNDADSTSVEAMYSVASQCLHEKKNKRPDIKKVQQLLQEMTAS
Chain of Epidermal growth factor receptor (Homo sapiens) (P00533 whole entry): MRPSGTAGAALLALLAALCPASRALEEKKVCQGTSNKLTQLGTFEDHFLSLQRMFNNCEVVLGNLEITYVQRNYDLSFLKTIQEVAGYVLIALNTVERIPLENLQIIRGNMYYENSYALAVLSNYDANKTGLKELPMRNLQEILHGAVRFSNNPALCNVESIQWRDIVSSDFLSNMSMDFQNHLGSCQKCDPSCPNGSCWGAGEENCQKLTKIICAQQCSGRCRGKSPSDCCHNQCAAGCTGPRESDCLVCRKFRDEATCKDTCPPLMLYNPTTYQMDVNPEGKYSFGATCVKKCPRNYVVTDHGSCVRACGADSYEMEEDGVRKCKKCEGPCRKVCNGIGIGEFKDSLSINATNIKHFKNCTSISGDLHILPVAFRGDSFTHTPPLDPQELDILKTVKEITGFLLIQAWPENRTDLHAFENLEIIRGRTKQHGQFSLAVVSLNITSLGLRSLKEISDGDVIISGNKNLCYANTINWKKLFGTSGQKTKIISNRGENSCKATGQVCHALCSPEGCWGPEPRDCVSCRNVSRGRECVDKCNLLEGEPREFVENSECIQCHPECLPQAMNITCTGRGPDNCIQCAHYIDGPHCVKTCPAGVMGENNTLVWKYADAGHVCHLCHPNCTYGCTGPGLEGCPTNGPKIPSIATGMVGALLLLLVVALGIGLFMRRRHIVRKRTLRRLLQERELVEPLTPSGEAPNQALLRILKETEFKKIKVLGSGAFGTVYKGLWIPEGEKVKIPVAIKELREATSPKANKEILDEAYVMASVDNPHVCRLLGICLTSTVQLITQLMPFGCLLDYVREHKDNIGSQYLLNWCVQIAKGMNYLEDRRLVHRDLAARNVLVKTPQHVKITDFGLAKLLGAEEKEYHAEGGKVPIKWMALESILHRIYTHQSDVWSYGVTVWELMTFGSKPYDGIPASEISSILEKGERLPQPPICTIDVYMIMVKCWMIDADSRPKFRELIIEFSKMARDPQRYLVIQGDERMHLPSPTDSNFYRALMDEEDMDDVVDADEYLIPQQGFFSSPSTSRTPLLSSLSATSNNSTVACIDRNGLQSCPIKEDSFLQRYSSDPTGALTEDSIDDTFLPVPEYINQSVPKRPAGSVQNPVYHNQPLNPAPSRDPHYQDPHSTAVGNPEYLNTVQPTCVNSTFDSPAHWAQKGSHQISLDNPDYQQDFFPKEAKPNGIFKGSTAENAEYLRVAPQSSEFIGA
Chain of Dual specificity mitogen-activated protein kinase kinase 3 (Homo sapiens) (P46734 whole entry): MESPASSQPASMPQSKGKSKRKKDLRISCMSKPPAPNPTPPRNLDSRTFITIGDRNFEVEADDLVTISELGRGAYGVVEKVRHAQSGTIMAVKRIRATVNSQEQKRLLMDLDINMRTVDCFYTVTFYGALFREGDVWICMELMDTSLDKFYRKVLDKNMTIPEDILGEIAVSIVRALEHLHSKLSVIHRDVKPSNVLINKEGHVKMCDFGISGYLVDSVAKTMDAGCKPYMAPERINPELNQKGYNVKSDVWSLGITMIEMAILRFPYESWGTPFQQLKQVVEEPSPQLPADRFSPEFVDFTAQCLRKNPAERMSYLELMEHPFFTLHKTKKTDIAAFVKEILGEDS
Chain of Ephrin type-A receptor 1 (Homo sapiens) (P21709 whole entry): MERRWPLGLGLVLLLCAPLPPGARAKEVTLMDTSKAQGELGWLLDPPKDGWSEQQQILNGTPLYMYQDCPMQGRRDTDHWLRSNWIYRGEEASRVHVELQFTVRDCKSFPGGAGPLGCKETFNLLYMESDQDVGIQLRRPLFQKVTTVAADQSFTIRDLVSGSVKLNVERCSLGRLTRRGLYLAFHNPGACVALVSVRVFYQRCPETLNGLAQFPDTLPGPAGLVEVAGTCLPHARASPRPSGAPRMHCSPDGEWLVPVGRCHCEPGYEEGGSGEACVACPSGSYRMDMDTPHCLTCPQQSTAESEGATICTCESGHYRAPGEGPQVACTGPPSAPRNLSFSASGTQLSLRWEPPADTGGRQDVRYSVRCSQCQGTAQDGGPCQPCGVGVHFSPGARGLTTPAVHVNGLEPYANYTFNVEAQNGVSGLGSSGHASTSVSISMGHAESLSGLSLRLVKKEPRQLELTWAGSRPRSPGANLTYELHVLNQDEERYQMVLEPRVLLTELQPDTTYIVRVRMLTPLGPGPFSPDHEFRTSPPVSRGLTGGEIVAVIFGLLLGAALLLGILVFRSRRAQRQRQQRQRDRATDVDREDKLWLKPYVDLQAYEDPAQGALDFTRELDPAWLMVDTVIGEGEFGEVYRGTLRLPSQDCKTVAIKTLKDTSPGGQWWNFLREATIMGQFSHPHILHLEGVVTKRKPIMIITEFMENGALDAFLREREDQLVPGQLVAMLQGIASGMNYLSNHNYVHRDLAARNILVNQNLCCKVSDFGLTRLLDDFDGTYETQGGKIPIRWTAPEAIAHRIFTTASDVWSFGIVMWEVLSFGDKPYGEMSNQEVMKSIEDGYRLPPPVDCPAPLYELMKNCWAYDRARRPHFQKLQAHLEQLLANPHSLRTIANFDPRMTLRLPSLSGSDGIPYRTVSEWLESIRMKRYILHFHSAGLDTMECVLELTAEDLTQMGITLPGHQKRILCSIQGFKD
Chain of Tyrosine-protein kinase JAK1 (P23458 whole entry): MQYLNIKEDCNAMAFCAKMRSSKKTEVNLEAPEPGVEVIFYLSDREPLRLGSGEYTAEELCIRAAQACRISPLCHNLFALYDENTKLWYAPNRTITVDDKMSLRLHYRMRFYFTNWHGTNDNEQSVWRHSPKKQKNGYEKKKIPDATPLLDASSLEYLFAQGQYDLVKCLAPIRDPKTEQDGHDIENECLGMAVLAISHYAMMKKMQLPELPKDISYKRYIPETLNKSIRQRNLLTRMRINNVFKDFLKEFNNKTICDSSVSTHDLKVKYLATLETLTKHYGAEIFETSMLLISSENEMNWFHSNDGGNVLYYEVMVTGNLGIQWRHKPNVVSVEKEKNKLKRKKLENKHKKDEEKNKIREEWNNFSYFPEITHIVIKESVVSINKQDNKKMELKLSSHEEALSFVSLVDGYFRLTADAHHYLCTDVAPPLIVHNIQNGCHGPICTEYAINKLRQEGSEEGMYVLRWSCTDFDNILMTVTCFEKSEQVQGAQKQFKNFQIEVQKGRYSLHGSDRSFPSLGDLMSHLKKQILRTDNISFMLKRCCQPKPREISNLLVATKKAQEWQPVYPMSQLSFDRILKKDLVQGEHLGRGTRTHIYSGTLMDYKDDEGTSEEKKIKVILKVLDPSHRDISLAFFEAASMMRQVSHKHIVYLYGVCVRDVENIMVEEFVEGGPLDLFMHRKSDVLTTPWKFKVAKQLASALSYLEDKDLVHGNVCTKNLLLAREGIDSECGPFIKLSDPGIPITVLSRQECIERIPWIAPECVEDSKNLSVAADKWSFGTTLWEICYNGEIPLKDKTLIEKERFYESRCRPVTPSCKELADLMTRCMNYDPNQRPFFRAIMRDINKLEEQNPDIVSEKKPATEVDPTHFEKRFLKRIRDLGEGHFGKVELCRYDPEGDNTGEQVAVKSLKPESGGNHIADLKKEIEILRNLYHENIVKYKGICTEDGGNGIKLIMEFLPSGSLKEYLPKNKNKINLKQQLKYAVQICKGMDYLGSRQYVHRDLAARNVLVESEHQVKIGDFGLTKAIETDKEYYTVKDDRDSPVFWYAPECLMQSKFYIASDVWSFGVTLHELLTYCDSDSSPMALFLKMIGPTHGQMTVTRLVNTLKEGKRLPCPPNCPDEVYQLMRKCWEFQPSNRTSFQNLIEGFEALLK
Chain of Alpha-2A adrenergic receptor (Homo sapiens) (P08913 whole entry): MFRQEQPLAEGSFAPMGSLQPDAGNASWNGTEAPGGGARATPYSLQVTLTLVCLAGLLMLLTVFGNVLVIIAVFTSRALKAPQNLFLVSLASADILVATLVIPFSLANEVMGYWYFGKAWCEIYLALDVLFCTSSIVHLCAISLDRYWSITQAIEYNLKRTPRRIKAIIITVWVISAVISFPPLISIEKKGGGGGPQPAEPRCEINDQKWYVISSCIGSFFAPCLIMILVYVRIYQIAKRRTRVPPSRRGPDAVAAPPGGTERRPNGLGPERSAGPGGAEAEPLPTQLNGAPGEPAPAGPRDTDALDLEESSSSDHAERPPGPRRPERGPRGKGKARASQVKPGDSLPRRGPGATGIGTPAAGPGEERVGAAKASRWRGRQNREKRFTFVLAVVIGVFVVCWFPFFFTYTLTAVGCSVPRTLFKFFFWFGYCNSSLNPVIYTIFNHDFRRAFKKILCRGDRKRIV
Chain of Dual specificity mitogen-activated protein kinase kinase 6 (Homo sapiens) (P52564 whole entry): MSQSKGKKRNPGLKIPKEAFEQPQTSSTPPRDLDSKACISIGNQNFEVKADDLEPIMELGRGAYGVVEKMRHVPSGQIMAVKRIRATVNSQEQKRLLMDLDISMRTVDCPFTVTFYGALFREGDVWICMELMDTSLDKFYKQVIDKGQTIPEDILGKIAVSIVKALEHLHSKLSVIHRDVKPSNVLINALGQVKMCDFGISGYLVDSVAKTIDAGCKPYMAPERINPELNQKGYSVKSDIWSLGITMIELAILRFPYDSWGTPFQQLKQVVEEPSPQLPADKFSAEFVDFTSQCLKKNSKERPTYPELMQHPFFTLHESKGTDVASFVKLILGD

CC(C)(O)[C@H](F)CN1Cc2cc(NC(=O)c3cnn4cccnc34)c(N3CCOCC3)cc2C1=O
inhibition [1]: 25.3% | EC50 [2]: > 50000 nM (not active) | inhibition [3]: 4% | inhibition [4]: 6% | inhibition [5]: 9.5% | inhibition [6]: 2.5% | inhibition [7]: 18.5% | inhibition [8]: 4% | inhibition [9]: 13.5% | inhibition [10]: 6% | inhibition [11]: 6.8% | inhibition [12]: 19.5% | inhibition [13]: 18.5% | IC50 [14]: 680 nM | inhibition ([14]; Compound concentration 1.0 uM): 86.3% | inhibition [15]: 36.5% | inhibition [16]: -0.93% | inhibition [17]: 3% | inhibition [18]: -2% | inhibition [19]: 8% | inhibition [20]: 12% | inhibition [21]: -0.98% | inhibition [22]: 11.5% | EC50 [23]: 3 nM (active) | IC50 [23]: 3.3 nM (active) | inhibition [24]: 7.5% | inhibition [25]: 4% | inhibition [26]: 11.2% | inhibition [27]: -0.5% | inhibition [28]: 6% | inhibition [29]: -2.5% | inhibition (Rattus norvegicus): -2.15% | inhibition [30]: 10.5% | inhibition [31]: 10% | inhibition [32]: -3.5% | inhibition [33]: 17% | inhibition [34]: -7.43% | inhibition [35]: 20.8% | inhibition [36]: -5.5% | inhibition [37]: -0.5% | inhibition [38]: 5% | inhibition [39]: 9.09% | inhibition [40]: 37.5% | inhibition [41]: 42% | inhibition [42]: 13% | inhibition [43]: 5.5% | inhibition [44]: -1% | inhibition [45]: 1.5% | inhibition [46]: 3.5% | inhibition [47]: 5.5% | inhibition [48]: 7.5% | inhibition [49]: 2.5% | inhibition [50]: 9.8% | inhibition [51]: 1%
